Measured values from patent US9107844B2, “Topical skin treating compositions” (STIEFEL LABORATORIES INC., priority 2006, dated 2015).

What was measured:
Assay type in all cases: physicochemical
[1] = Stability of combined active ingredients, Example 6 composition (benzoyl peroxide/tazarotene/clindamycin); conditions: 0.096% tazarotene, […] clindamycin, Initial […], 2 weeks
Experimental: Measurements were taken at the end of 2 weeks. The composition was stored at 2 different temperatures, i.e., 25° C. and 30° C. […]

[2] = Stability of active ingredients, Example 9 composition (benzoyl peroxide/tazarotene); conditions: composition 5.18% BPO, 0.099% tazarotene, Initial 5.18%
From the text: Tables 9 and 10 show the stability of the active ingredients in a composition containing 5.18% of benzoyl peroxide and 0.099% of tazarotene.
A 2-week and 6-month analysis of the composition was undertaken following the procedure of Example 2.

[3] = Stability of active ingredients, Example 10 composition (benzoyl peroxide/clindamycin); conditions: composition 4.84% BPO, 1.08% clindamycin, Initial 4.84%
From the text: A 2-week analysis and 6-month analysis of the composition was undertaken following the procedure of Example 2.

Benzoyl Peroxide (BPO) (as % w/w) ([1]; 25° C.): 1.06 % w/w
Benzoyl Peroxide (BPO) (as % w/w) ([1]; 30° C.): 1.06 % w/w
Benzoyl Peroxide (BPO) (as % w/w) ([2]; 6° C., 6 months): 5.2 % w/w
Benzoyl Peroxide (BPO) (as % w/w) ([2]; 25° C., 2 weeks): 5.21 % w/w
Benzoyl Peroxide (BPO) (as % w/w) ([2]; 25° C., 6 months): 5.14 % w/w
Benzoyl Peroxide (BPO) (as % w/w) ([3]; 6° C., 2 weeks): 5.53 % w/w
Benzoyl Peroxide (BPO) (as % w/w) ([3]; 6° C., 6 months): 4.81 % w/w
Benzoyl Peroxide (BPO) (as % w/w) ([3]; 25° C., 2 weeks): 5.01 % w/w
Benzoyl Peroxide (BPO) (as % w/w) ([3]; 25° C., 6 months): 4.85 % w/w
Structure (SMILES): O=C(OOC(=O)c1ccccc1)c1ccccc1 [Benzoyl Peroxide]
